Experimental data: PubChem BioAssay (NCI)
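Results reflect a 48-hour exposure of cells in 96-well plates to compound at five concentrations. At the GI50, growth is halved. TGI marks complete inhibition of growth.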

Key:
Test in all cases: growth of human tumour cells (NCI), 48 h
[1] = system: MOLT-4 leukemia
[2] = system: UO-31 renal
[3] = system: HOP-92 NSCLC
[4] = system: HCT-15 colon
[5] = system: DU-145 prostate
[6] = system: SR leukemia
[7] = system: SK-MEL-5 melanoma
[8] = system: HCT-116 colon
[9] = system: BT-549 breast
[10] = system: OVCAR-4 ovarian

**Q.** How did the GI50 [1] turn out when COc1cccc(C2CC(=O)Nc3c2c(C)nn3-c2nc3ccccc3[nH]2)c1OC (configuration not stated) was run?
**A.** 53.1 nM

**Q.** What about the GI50 [2] of the same compound?
**A.** 3350 nM

**Q.** And the TGI [2]?
**A.** 23.6 µM

**Q.** And the GI50 [3]?
**A.** 2950 nM

**Q.** What about the TGI [3] of the same compound?
**A.** 24.3 µM

**Q.** What about the GI50 [4] of the same compound?
**A.** 3450 nM

**Q.** And the TGI [4]?
**A.** 26.8 µM

**Q.** What about the GI50 [5] of the same compound?
**A.** 8680 nM

**Q.** And the TGI [5]?
**A.** > 89.4 µM

**Q.** What about the GI50 [6] of the same compound?
**A.** 4220 nM

**Q.** And the TGI [6]?
**A.** > 40.9 µM

**Q.** What about the GI50 [7] of the same compound?
**A.** 2200 nM

**Q.** And the TGI [7]?
**A.** 5.74 µM

**Q.** What about the GI50 [8] of the same compound?
**A.** 3360 nM

**Q.** What about the TGI [8] of the same compound?
**A.** 14.6 µM

**Q.** And the GI50 [9]?
**A.** 5520 nM

**Q.** And the TGI [9]?
**A.** 42.2 µM

**Q.** What about the GI50 [10] of the same compound?
**A.** 6920 nM

**Q.** And the TGI [10]?
**A.** > 91.3 µM

**Q.** With CC(C)(Oc1ccc(-c2cccc3ccccc23)cc1)C(=O)O as the compound, how does the TGI [1] read?
**A.** > 100 µM

**Q.** What about the TGI [2] of the same compound?
**A.** > 100 µM

**Q.** And the TGI [3]?
**A.** > 100 µM

**Q.** What about the TGI [4] of the same compound?
**A.** > 100 µM

**Q.** And the TGI [5]?
**A.** > 100 µM

**Q.** And the TGI [6]?
**A.** > 100 µM

**Q.** What about the TGI [7] of the same compound?
**A.** > 100 µM

**Q.** And the TGI [8]?
**A.** > 100 µM

**Q.** What about the TGI [9] of the same compound?
**A.** > 100 µM

**Q.** What about the TGI [10] of the same compound?
**A.** > 100 µM

**Q.** Which results are given for COc1ccc2nc3ccccc3c(NCCNCCO)c2c1?
**A.** GI50 [1]: 393 nM; TGI [1]: 3.77 µM; GI50 [2]: 328 nM; TGI [2]: 1.68 µM; GI50 [3]: 908 nM; TGI [3]: 4.22 µM; GI50 [4]: 2040 nM; TGI [4]: 22.2 µM; GI50 [5]: 588 nM; TGI [5]: 5.8 µM; GI50 [6]: 214 nM; TGI [6]: 1.33 µM; GI50 [7]: 1050 nM; TGI [7]: 2.35 µM; GI50 [8]: 352 nM; TGI [8]: 4.84 µM; GI50 [9]: 1010 nM; TGI [9]: 4.29 µM; GI50 [10]: 836 nM; TGI [10]: 3.26 µM

**Q.** What does the source list for CCCN1C(=O)/C(=C/c2ccc(SC(F)(F)F)cc2)SC1=Nc1ccc(OC)cc1?
**A.** GI50 [1]: > 50000 nM; TGI [1]: > 50 µM; GI50 [2]: 8200 nM; TGI [2]: 17.1 µM; GI50 [3]: 6600 nM; TGI [3]: 19.8 µM; GI50 [4]: 2650 nM; TGI [4]: 36.9 µM; GI50 [5]: 21800 nM; TGI [5]: > 50 µM; GI50 [6]: 37700 nM; TGI [6]: > 50 µM; GI50 [7]: 17300 nM; TGI [7]: > 50 µM; GI50 [8]: 6290 nM; TGI [8]: 17.5 µM; GI50 [9]: 45100 nM; TGI [9]: > 50 µM

**Q.** For [O]=[Sn]([CH]1CCCCC1)[CH]1CCCCC1, which GI50 [1] is on record?
**A.** 273 nM

**Q.** And the GI50 [2]?
**A.** 293 nM

**Q.** And the TGI [2]?
**A.** 1.08 µM

**Q.** What about the GI50 [3] of the same compound?
**A.** 251 nM

**Q.** What about the TGI [3] of the same compound?
**A.** 1.2 µM

**Q.** What about the GI50 [4] of the same compound?
**A.** 197 nM

**Q.** And the TGI [4]?
**A.** 0.691 µM

**Q.** What about the GI50 [5] of the same compound?
**A.** 259 nM

**Q.** What about the TGI [5] of the same compound?
**A.** 0.839 µM

**Q.** What about the GI50 [6] of the same compound?
**A.** 312 nM

**Q.** What about the TGI [6] of the same compound?
**A.** 1.71 µM

**Q.** What about the GI50 [7] of the same compound?
**A.** 259 nM

**Q.** And the TGI [7]?
**A.** 1.14 µM

**Q.** And the GI50 [8]?
**A.** 152 nM

**Q.** What about the TGI [8] of the same compound?
**A.** 0.32 µM

**Q.** And the GI50 [9]?
**A.** 229 nM

**Q.** What about the TGI [9] of the same compound?
**A.** 0.588 µM

**Q.** And the GI50 [10]?
**A.** 342 nM

**Q.** What about the TGI [10] of the same compound?
**A.** 1.46 µM

**Q.** CC[C@H](C)[C@H](NC(=O)[C@H]1CCCCN1C)C(=O)N(C)[C@H](CCc1nc(C(=O)N[C@@H](Cc2ccccc2)C[C@H](C)C(=O)O)cs1)C(C)C was tested. Which GI50 [1] did it give?
**A.** 138 nM

**Q.** And the TGI [1]?
**A.** > 25 µM

**Q.** What about the GI50 [2] of the same compound?
**A.** > 14100 nM

**Q.** And the TGI [2]?
**A.** > 25 µM

**Q.** What about the GI50 [3] of the same compound?
**A.** 643 nM

**Q.** And the TGI [3]?
**A.** > 25 µM

**Q.** What about the GI50 [4] of the same compound?
**A.** 1340 nM

**Q.** And the TGI [4]?
**A.** > 25 µM

**Q.** What about the GI50 [5] of the same compound?
**A.** 389 nM

**Q.** And the TGI [5]?
**A.** > 25 µM

**Q.** What about the GI50 [6] of the same compound?
**A.** 16.6 nM

**Q.** What about the TGI [6] of the same compound?
**A.** > 25 µM

**Q.** What about the GI50 [7] of the same compound?
**A.** 87.5 nM

**Q.** What about the TGI [7] of the same compound?
**A.** 3.24 µM

**Q.** And the GI50 [8]?
**A.** 133 nM

**Q.** What about the TGI [8] of the same compound?
**A.** > 25 µM

**Q.** What about the GI50 [9] of the same compound?
**A.** 126 nM

**Q.** And the TGI [9]?
**A.** 6.94 µM

**Q.** What about the GI50 [10] of the same compound?
**A.** 1940 nM

**Q.** What about the TGI [10] of the same compound?
**A.** > 25 µM

**Q.** With O=C1C(Cl)=C(Nc2ccc(S(=O)(=O)c3ccc(NC4=C(Cl)C(=O)c5ccccc5C4=O)cc3)cc2)C(=O)c2ccccc21 as the compound, how does the GI50 [1] read?
**A.** 1870 nM

**Q.** What about the TGI [1] of the same compound?
**A.** 5.86 µM

**Q.** What about the GI50 [2] of the same compound?
**A.** 1380 nM

**Q.** What about the TGI [2] of the same compound?
**A.** 2.85 µM

**Q.** And the GI50 [3]?
**A.** 1960 nM

**Q.** What about the TGI [3] of the same compound?
**A.** 3.44 µM

**Q.** And the GI50 [5]?
**A.** 1910 nM

**Q.** And the TGI [5]?
**A.** 3.69 µM

**Q.** What about the GI50 [6] of the same compound?
**A.** 1270 nM

**Q.** What about the TGI [6] of the same compound?
**A.** 7.19 µM

**Q.** And the GI50 [7]?
**A.** 1710 nM

**Q.** What about the TGI [7] of the same compound?
**A.** 3.49 µM

**Q.** And the GI50 [8]?
**A.** 1200 nM

**Q.** And the TGI [8]?
**A.** 2.49 µM

**Q.** And the GI50 [9]?
**A.** 1650 nM

**Q.** And the TGI [9]?
**A.** 3.24 µM
